Assay results published in PubChem BioAssay (NCI).
Where “and” joins values, the source holds several entries; their conditions need not be identical. Equal values may be shown once.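 All cell lines were grown in 96-well plates and treated with compound for 48 hours. At the GI50, growth is halved. Definition used: TGI = concentration required for complete inhibition of growth.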

Columns and labels:
Test in all cases: NCI tumour cell line growth inhibition, 48 h
IGROV1 ovarian = system: IGROV1 ovarian
SK-MEL-5 melanoma = system: SK-MEL-5 melanoma
ACHN renal = system: ACHN renal
HCT-116 colon = system: HCT-116 colon
LOX IMVI melanoma = system: LOX IMVI melanoma
UACC-257 melanoma = system: UACC-257 melanoma
RPMI-8226 leukemia = system: RPMI-8226 leukemia
CAKI-1 renal = system: CAKI-1 renal
NCI-H460 lung = system: NCI-H460 lung
SF-539 CNS = system: SF-539 CNS

SMILES	TGI (IGROV1 ovarian)	TGI (SK-MEL-5 melanoma)	TGI (ACHN renal)	TGI (HCT-116 colon)	TGI (LOX IMVI melanoma)	TGI (UACC-257 melanoma)	TGI (RPMI-8226 leukemia) [µM]	TGI (CAKI-1 renal)	TGI (NCI-H460 lung)	TGI (SF-539 CNS)	GI50 (IGROV1 ovarian) [µM]	GI50 (SK-MEL-5 melanoma)	GI50 (ACHN renal)	GI50 (HCT-116 colon) [µM]	GI50 (LOX IMVI melanoma)	GI50 (RPMI-8226 leukemia) [µM]	GI50 (CAKI-1 renal) [µM]	GI50 (SF-539 CNS) [µM]	GI50 (UACC-257 melanoma) [µM]	GI50 (NCI-H460 lung)
O=C(O)c1cc2ccccc2c(N=Nc2c([N+](=O)[O-])cc([N+](=O)[O-])cc2S(=O)(=O)O)c1O	> 100 µM	> 100 µM	> 100 µM	> 100 µM	> 100 µM	> 100 µM	> 100	> 100 µM	–	–	–	–	–	–	–	–	–	–	–	–
N/N=C1\c2ccccc2C2/C(=N\N)c3ccccc3C12 (stereo not drawn)	> 100 µM	> 100 µM	> 100 µM	–	> 100 µM	> 100 µM	> 100	> 100 µM	> 100 µM	> 100 µM	–	–	–	–	–	–	–	–	–	–
Cc1ccc(S(=O)(=O)Oc2ccc3c4c(c(=O)oc3c2)CCCCC4)cc1	> 100 µM	> 100 µM	> 100 µM	> 100 µM	> 100 µM	–	> 100	> 100 µM	–	> 100 µM	> 100	2.75 µM	> 100 µM	6	> 100 µM	4.55	> 100	6.77	–	–
C/C=C(\C)C(=O)O[C@@H]1C(O)[C@H]2OC(COC(=O)CCC(=O)CCCCCC[C@H](CCCCC)O[C@@H]3OC(C)[C@H](OC(C)=O)C(O)[C@H]3O2)[C@H]1OC(=O)/C=C/c1ccccc1 (stereo partly drawn)	17.9 µM	–	12.3 µM	> 33.6 µM	–	1.04 µM	9.35	–	> 60.9 µM	1.96 µM	< 0.0163	< 0.01 µM	0.0175 µM	< 0.01	–	< 0.01	–	< 0.01	< 0.0109	< 0.01 µM
CC1CCCC(C(O)CC2CC(=O)N(c3ccccc3)C(=O)C2)C1=O (stereo not drawn)	> 100 µM	–	> 100 µM	> 100 µM	> 100 µM	> 100 µM	> 100	> 100 µM	> 100 µM	> 100 µM	–	–	–	–	–	–	–	–	–	–
N#CC1C(=N)Cc2ccccc2-c2ccccc21 (stereo not drawn)	–	11.1 µM	82.5 µM	15.3 µM	33.5 µM	69.1 µM	> 100	24.2 µM	18.3 µM	25.2 µM	–	3.35 µM	12.8 µM	3.25	6.26 µM	9.03	3.21	3.92	8.33	3.92 µM
COc1ccc2nc(NCCCNCCO)c3sc4ccc(F)cc4c(=O)c3c2c1	2.63 µM	3.14 µM	2.99 µM	2.86 µM	2.9 µM	4.04 µM	–	2.98 µM	3.02 µM	3.18 µM	1.25	1.73 µM	1.63 µM	1.47	1.48 µM	–	1.58	1.71	1.89	1.53 µM
COC(=O)c1c2c(c(C)[n+]([O-])c1C)C(=O)C=C(NCc1cccc(OC)c1)C2=O	2.18 µM	0.334 µM	2.19 µM	–	1.44 µM	0.786 µM	4.29	2.22 µM	–	2.11 µM	0.579	0.171 µM	1.01 µM	–	0.249 µM	0.848	0.696	0.879	0.254	–
COc1cc(/C=C/C(=O)c2cc(F)c(Cl)cc2Cl)cc(OC)c1OC	–	> 100 µM	> 100 µM	25.1 µM	91.2 µM	> 100 µM	52.9	> 100 µM	> 100 µM	> 100 µM	–	49.6 µM	60.6 µM	12.6	25.1 µM	15.2	27.6	28.1	42	48.3 µM
COc1cccc(/C=C/C(=O)c2ccc(Cl)cc2Cl)c1OC	–	28.1 µM	28 µM	5.85 µM	6.88 µM	23.2 µM	–	25.1 µM	> 100 µM	29 µM	–	13.3 µM	14.3 µM	2.31	2.64 µM	–	12.6	14.1	11.2	8.37 µM
N#C/C(=C\c1ccc(Br)cc1)n1nnc2cccc(F)c21	–	2.75 µM	3.48 µM	–	1.92 µM	5.43 µM	4.25	4.99 µM	4.21 µM	3.45 µM	–	1.41 µM	1.41 µM	–	0.614 µM	0.416	2.05	1.86	1.86	1.97 µM
Cc1ccc(N=C2CSc3nnc(-c4csc5c4CCCC5)n3N2)cc1	> 50 µM	> 50 µM	> 50 µM	> 50 µM	> 50 µM	> 50 µM	> 50	–	> 50 µM	0.473 µM	0.446	0.175 µM	2.94 µM	0.225	0.302 µM	0.203	–	0.131	> 50	0.181 µM
CN(C)c1ccc(/C=C2\CNC/C(=C\c3ccc(N(C)C)cc3)C2=O)cc1	97.1 µM	> 100 µM	54 µM	35.1 µM	37 µM	> 100 µM	> 100	–	29.4 µM	> 100 µM	–	–	–	–	–	–	–	–	–	–
C/C(=N\NC(=O)CC(=O)Nc1ccc(Cl)cc1)c1cc2ccccc2oc1=O	> 100 µM	> 100 µM	> 100 µM	> 100 µM	> 100 µM	> 100 µM	> 100	–	> 100 µM	> 100 µM	–	–	–	–	–	–	–	–	–	–
COc1cc(-c2oc3c(OC)c(OC)cc(O)c3c(=O)c2OC)ccc1O	> 100 µM and 35.5 µM	> 100 µM and 37.7 µM	–	> 100 µM	> 100 µM and 36.3 µM	> 100 µM	–	> 50 µM	> 100 µM	> 100 µM and 49.2 µM	–	2.37 µM and 9.11 µM	1.84 µM and 4.71 µM	–	1.88 µM and 7.95 µM	–	–	–	–	4 µM and 8.51 µM
CCC(=O)OC1CCn2c1nc1c2C(=O)C(C)=C(N2CC2)C1=O (stereo not drawn)	0.237 µM and 1.25 µM	0.0765 µM and 0.319 µM	0.0491 µM and 0.411 µM	0.779 µM and 0.409 µM	0.0886 µM and 0.243 µM	0.0629 µM and 0.152 µM	–	1.01 µM and 0.511 µM	0.0452 µM and 0.124 µM	–	0.0573	0.165 µM	0.0195 µM	0.0229	0.0311 µM	–	0.233	0.0138	0.0261	0.0141 µM
Cc1c(O)c(=O)ccn1C1OC(CO)C(O)C1O (stereo not drawn)	–	> 100 µM	> 100 µM	> 100 µM	> 100 µM	> 100 µM	> 100	> 100 µM	> 100 µM	–	–	–	–	–	–	–	–	–	–	–
COC(=O)C1=C(C(=O)OC)C23C=CC=CC24C(C(=O)OC)=C(C(=O)OC)C4C1C3 (stereo not drawn)	> 100 µM	> 100 µM	> 100 µM	> 100 µM	–	> 100 µM	> 100	–	> 100 µM	> 100 µM	–	–	–	–	–	–	–	–	–	–
CO[C@H]1[C@H](O)[C@H](O[C@H]2CC[C@@]3(C)[C@H](CC[C@@H]4[C@@H]3CC[C@]3(C)[C@@H](C5=CC(=O)OC5)CC[C@]43O)C2)O[C@@H](C)[C@@H]1O	–	0.00194 µM	0.00152 µM	0.00229 µM and < 0.0113 µM	0.00271 µM and < 0.0111 µM	0.00571 µM and < 0.0137 µM	0.00542	0.00156 µM	0.00151 µM	0.00111 µM	–	–	–	–	–	–	–	–	–	–
COC(=O)[C@]12CC[C@@H](C)[C@H](C)[C@@H]1C1=CC[C@@H]3[C@@]4(C)C(C=O)=C[C@@](C)(COC(C)=O)[C@@H]4[C@H](O)C[C@@]3(C)[C@]1(C)CC2	9.7 µM	3.19 µM	4.32 µM	–	2.91 µM	4.8 µM	4.55	12.3 µM	3.9 µM	4.14 µM	2.95	1.66 µM	1.92 µM	–	1.57 µM	1.4	2.72	1.93	2.02	1.89 µM
COc1c2ccccc2c(O)c2c(=O)c(C(=O)O)cn(C)c12	> 100 µM	> 100 µM	> 100 µM	> 100 µM	> 100 µM	> 100 µM	> 100	–	> 100 µM	> 100 µM	> 100	> 100 µM	> 100 µM	> 100	> 100 µM	> 100	–	35.9	> 100	> 100 µM
CCCCn1c2c(c3ccccc3c1=O)C(=O)c1ccccc1-2	> 100 µM	> 100 µM	–	> 100 µM	> 100 µM	> 100 µM	> 100	> 100 µM	–	> 100 µM	–	–	–	–	–	–	–	–	–	–
CC1=C(C(=O)Nc2ccccc2C)C(c2ccc([N+](=O)[O-])cc2)C(C(=O)Nc2ccccc2C)=C(C)N1	> 100 µM	> 100 µM	> 100 µM	–	> 100 µM	> 100 µM	> 100	> 100 µM	> 100 µM	> 100 µM	–	–	–	–	–	–	–	–	–	–
N#Cc1c[nH]n2ccnc12	> 100 µM	> 100 µM	> 100 µM	> 100 µM	–	> 100 µM	–	> 100 µM	> 100 µM	–	–	–	–	–	–	–	–	–	–	–
CCOP(=O)(CC(=O)C1=C(O)C(CCCNC(=O)OC(C)(C)C)N(Cc2ccc(OC)c(OC)c2)C1=O)OCC (stereo not drawn)	> 100 µM	> 100 µM	> 100 µM	> 100 µM	> 100 µM	> 100 µM	> 100	–	> 100 µM	> 100 µM	–	–	–	–	–	–	–	–	–	–
